From US11033640B2, “Enteric CT contrast material based on low-z atoms” (priority 2013, dated 2021)

Test system: rabbit

Which results are given for `[Mg+2].[OH-].[OH-]` [Mg(OH)2, magnesium hydroxide]?
Toxicity or discomfort (rabbit model, high-concentration suspension diluted to 400 HU): without observing obvious toxicity or discomfort; Differentiation from iodinated intravascular contrast, two-material decomposition (rabbit, dual energy CT): without interfering signal from the intravascular iodinated contrast material
